Assay results: article PMC10647861, “New Thiazolyl-Pyrazoline Derivatives as Potential Dual EGFR/HER2 Inhibitors: Design, Synthesis, Anticancer Activity Evaluation and In Silico Study” (Molecules, 2023)
Like-named read-outs stand apart in the source and are kept apart here. Each block holds one compound with its values, some of them ahead of it.

How the values were obtained:
MCF-7 [1] = test: MTT anti-proliferative assay toward MCF-7; conditions: Homo sapiens, MCF7, 48 h, read-out: IC50 toward MCF-7
Protocol: Anti-proliferative activities were done using the MTT colorimetric assay [58]. Cell viability was assessed after 48 h, and the viability was calculated relative to the control [59]
Experimental of biological evaluations
Anti-proliferative activities were done using MTT colorimetric assay.
Both cell lines were provided with 10% fetal bovine serum (FBS, Sigma-Aldrich, MO, USA) and 1% penicillin-streptomycin (Lonza, Belgium). Cells were incubated following standard tissue culture work. Cell viability was assessed after 48 h using MTT solution (Promega, USA). Absorbance was subsequently measured (at 570 nm) using ELISA microplate reader (BIO-RAD, model iMark, Japan). The viability was calculated relative to control.
EGFR and HER2 enzyme inhibition
(§1) Measurement of potential EGFR/ HER2 inhibitory activities was performed using EGFR
(§2) following equation was used to determine the proportion of autophosphorylation inhibition by
concentrations for each compound.
Cell cycle analysis and apoptotic assay
MCF-7 cells were seeded into 6-well culture plates (3-5× 10^5 cells/well) and incubated
48 h. Subsequently, cells and medium supernatants were gathered and washed with ice-cold PBS.
The cells were then suspended in 100 µL of the annexin binding buffer solution, which was described as "25 mM CaCl 2, 1.4 M NaCl, and 0.1 M Hepes/NaOH, pH 7.4”. The cell incubation and addition of Annexin V-FITC solution, and propidium iodide (PI) were done according to the reported procedure. Next, the Cytoflex FACS equipment was used to obtain the stained cells. The program CytExpert was used to analyze the data.

HER2 Kinase = HER2 Kinase (Homo sapiens, UniProt P04626); test: HER2 kinase inhibitory assay (BPS Bioscience kit)
Protocol: Experimental of biological evaluations
EGFR and HER2 enzyme inhibition
as §1, §2
concentrations for each compound.

MCF-7 [2] = test: Cell cycle analysis in MCF-7; assay type: cell-based; conditions: for DNA Content %G0-G1 / DNA Content %G2/M / DNA Content %S: MCF-7, compound at its IC50, 48 h
EGFR Kinase = EGFR Kinase (Homo sapiens, UniProt P00533); test: EGFR kinase inhibitory assay (BPS Bioscience kit)
Protocol: Experimental of biological evaluations
EGFR and HER2 enzyme inhibition
as §1, §2
concentrations for each compound.

MCF-10A = test: MTT cytotoxicity assay toward MCF-10A; assay type: cell-based; conditions: Homo sapiens, 48 h
MCF-7 cells = test: Annexin V/PI apoptosis analysis in MCF-7; assay type: cell-based; conditions: MCF-7, compound at its IC50, 48 h
MCF-7 [3] = conditions: cited from earlier work
HER2 = conditions: cited from earlier work
EGFR = conditions: cited from earlier work
A549 = system: A549; design: method as in PMID 21802290; conditions: cited from earlier work
T-47D cell line = system: T-47D cell line; design: method as in PMID 37049966; conditions: cited from earlier work

HER2 Kinase, sequence (P04626 23-1255): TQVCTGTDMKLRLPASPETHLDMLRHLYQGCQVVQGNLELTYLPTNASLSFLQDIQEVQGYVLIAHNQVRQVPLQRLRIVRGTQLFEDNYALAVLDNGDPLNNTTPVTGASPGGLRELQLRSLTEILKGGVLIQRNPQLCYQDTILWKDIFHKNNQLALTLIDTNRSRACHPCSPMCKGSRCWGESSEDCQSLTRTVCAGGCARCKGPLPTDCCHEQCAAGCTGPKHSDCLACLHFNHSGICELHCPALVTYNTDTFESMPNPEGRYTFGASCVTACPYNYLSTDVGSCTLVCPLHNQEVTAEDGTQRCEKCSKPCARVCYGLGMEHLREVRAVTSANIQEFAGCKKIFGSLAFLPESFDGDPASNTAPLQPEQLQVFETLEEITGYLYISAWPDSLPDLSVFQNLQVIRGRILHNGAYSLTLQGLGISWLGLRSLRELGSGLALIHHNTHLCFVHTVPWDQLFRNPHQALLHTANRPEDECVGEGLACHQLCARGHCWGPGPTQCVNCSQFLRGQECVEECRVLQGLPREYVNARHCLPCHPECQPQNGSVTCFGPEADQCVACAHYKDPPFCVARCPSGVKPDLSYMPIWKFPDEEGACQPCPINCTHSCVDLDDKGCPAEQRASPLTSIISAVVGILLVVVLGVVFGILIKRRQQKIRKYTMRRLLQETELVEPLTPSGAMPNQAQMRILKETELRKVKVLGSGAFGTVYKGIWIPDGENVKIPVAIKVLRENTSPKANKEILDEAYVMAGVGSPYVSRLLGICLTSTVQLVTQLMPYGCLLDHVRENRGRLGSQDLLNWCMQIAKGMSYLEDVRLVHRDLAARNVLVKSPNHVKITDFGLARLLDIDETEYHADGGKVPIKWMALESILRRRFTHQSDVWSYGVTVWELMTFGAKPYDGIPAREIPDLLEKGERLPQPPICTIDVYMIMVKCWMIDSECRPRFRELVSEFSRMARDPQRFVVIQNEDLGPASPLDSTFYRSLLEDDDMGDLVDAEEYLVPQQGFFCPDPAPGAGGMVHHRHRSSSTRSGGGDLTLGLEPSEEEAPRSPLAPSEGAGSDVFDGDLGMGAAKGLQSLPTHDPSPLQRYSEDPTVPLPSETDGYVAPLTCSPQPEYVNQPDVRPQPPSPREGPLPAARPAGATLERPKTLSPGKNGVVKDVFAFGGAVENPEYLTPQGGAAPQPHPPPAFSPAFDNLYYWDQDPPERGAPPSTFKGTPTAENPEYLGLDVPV
EGFR Kinase, sequence (P00533 25-1210): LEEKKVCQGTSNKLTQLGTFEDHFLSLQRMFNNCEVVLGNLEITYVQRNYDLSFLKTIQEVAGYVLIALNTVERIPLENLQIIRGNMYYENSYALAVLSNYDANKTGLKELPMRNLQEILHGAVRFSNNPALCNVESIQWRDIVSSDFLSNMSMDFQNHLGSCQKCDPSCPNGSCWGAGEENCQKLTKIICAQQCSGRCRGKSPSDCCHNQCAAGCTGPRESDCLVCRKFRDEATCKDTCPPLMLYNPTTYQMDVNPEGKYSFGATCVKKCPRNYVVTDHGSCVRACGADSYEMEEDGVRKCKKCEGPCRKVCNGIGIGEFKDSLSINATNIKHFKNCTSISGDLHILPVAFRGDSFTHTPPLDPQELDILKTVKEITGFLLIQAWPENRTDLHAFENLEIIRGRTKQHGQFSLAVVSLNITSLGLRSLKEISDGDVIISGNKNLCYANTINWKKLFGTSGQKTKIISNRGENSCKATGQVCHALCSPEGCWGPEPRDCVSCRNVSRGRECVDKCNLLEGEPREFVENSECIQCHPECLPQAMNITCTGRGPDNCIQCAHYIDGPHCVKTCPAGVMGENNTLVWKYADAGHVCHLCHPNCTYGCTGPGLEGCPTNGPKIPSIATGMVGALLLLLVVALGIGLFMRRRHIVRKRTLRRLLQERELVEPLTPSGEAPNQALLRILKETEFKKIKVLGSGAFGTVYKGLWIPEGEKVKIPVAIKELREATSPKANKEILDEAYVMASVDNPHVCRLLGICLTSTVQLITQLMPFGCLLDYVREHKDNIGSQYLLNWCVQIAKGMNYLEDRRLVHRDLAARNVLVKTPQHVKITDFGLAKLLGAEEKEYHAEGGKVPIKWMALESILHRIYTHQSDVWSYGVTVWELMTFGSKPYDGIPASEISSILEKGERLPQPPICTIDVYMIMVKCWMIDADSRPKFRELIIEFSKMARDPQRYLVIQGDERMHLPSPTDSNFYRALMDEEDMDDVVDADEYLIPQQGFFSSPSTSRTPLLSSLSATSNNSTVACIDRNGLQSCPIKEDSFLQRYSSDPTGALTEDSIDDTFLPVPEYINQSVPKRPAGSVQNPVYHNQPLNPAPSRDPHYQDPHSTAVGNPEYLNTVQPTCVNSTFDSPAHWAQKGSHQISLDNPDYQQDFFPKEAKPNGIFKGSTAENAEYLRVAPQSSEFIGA

melting point: 192 to 194 °C
IC50 (MCF-7 [1]): 18.6 ± 0.19 µM
SMILES: COc1ccc(C2CC(c3ccc(OC)c(OC)c3)=NN2c2nc(C)c(N=Nc3ccc(Cl)cc3)s2)cc1 (centres unmarked) [Compound 4a, 5-((4-Chlorophenyl)diazenyl)-2-(3-(3,4-dimethoxyphenyl)-5-(4-methoxyphenyl)-4,5-dihydro-1H-pyrazol-1-yl)-4-methylthiazole]

melting point: 200 to 202 °C
IC50 (MCF-7 [1]): 17.12 ± 0.15 µM
SMILES: COc1ccc(C2CC(c3ccc(OC)c(OC)c3)=NN2c2nc(C)c(N=Nc3ccc(S(N)(=O)=O)cc3)s2)cc1 (centres unmarked) [Compound 4b, 4-((2-(3-(3,4-Dimethoxyphenyl)-5-(4-methoxyphenyl)-4,5-dihydro-1H-pyrazol-1-yl)-4-methylthiazol-5-yl)diazenyl)benzenesulfonamide]

melting point: 210 to 212 °C
IC50 (MCF-7 [1]): 18.7 ± 0.22 µM
SMILES: COc1ccc(C2=NN(c3nc(C)c(N=Nc4ccc(Cl)cc4)s3)C(c3ccc(Cl)cc3)C2)cc1OC (centres unmarked) [Compound 4c, 2-(5-(4-Chlorophenyl)-3-(3,4-dimethoxyphenyl)-4,5-dihydro-1H-pyrazol-1-yl)-5-((4-chlorophenyl)diazenyl)-4-methylthiazole]

melting point: 208 to 210 °C
IC50 (MCF-7 [1]): 17.1 ± 0.21 µM
SMILES: COc1ccc(C2=NN(c3nc(C)c(N=Nc4ccc(S(N)(=O)=O)cc4)s3)C(c3ccc(Cl)cc3)C2)cc1OC (centres unmarked) [Compound 4d, 4-((2-(5-(4-Chlorophenyl)-3-(3,4-dimethoxyphenyl)-4,5-dihydro-1H-pyrazol-1-yl)-4-methylthiazol-5-yl)diazenyl)benzenesulfonamide]

IC50 (MCF-7 [1]): 30.24 ± 0.24 µM
SMILES: COc1ccc(C2CC(c3ccc(OC)c(OC)c3)=NN2C2=NC(=O)C(=NNc3ccc(Cl)cc3)S2)cc1 (centres unmarked) [Compound 5a, 5-(2-(4-Chlorophenyl)hydrazineylidene)-2-(3-(3,4-dimethoxyphenyl)-5-(4-methoxyphenyl)-4,5-dihydro-1H-pyrazol-1-yl)thiazol-4(5H)-one]

melting point: 249 to 251 °C
IC50 (MCF-7 [1]): 27.31 ± 0.26 µM
SMILES: COc1ccc(C2CC(c3ccc(OC)c(OC)c3)=NN2C2=NC(=O)C(=NNc3ccc(S(N)(=O)=O)cc3)S2)cc1 (centres unmarked) [Compound 5b, 4-(2-(2-(3-(3,4-Dimethoxyphenyl)-5-(4-methoxyphenyl)-4,5-dihydro-1H-pyrazol-1-yl)-4-oxothiazol-5(4H)-ylidene)hydrazineyl)benzenesulfonamide]

melting point: 278 to 280 °C
IC50 (MCF-7 [1]): 28.03 ± 0.25 µM
SMILES: COc1ccc(C2=NN(C3=NC(=O)C(=NNc4ccc(Cl)cc4)S3)C(c3ccc(Cl)cc3)C2)cc1OC (centres unmarked) [Compound 5c, 2-(5-(4-Chlorophenyl)-3-(3,4-dimethoxyphenyl)-4,5-dihydro-1H-pyrazol-1-yl)-5-(2-(4-chlorophenyl)hydrazineylidene)thiazol-4(5H)-one]

melting point: 292 to 294 °C
IC50 (MCF-7 [1]): 25.7 ± 0.12 µM
SMILES: COc1ccc(C2=NN(C3=NC(=O)C(=NNc4ccc(S(N)(=O)=O)cc4)S3)C(c3ccc(Cl)cc3)C2)cc1OC (centres unmarked) [Compound 5d, 4-(2-(2-(5-(4-Chlorophenyl)-3-(3,4-dimethoxyphenyl)-4,5-dihydro-1H-pyrazol-1-yl)-4-oxothiazol-5(4H)-ylidene)hydrazineyl)benzenesulfonamide]

IC50 (HER2 Kinase): 0.047 ± 0.008 µM
IC50 (EGFR Kinase): 0.024 ± 0.005 µM
IC50 (MCF-7 [1]): 4.08 ± 0.08 µM
SMILES: COc1ccc(C2CC(c3ccc(OC)c(OC)c3)=NN2C2=NC(=O)CS2)cc1 (centres unmarked) [Compound 6a, 2-(3-(3,4-Dimethoxyphenyl)-5-(4-methoxyphenyl)-4,5-dihydro-1H-pyrazol-1-yl)thiazol-4(5H)-one]
DNA Content %G0-G1 (MCF-7 [2]): 69.82%
DNA Content %G2/M (MCF-7 [2]): 8.12%
DNA Content %S (MCF-7 [2]): 22.06%
IC50 (MCF-10A): ≥ 50 µM
Apoptosis Early (MCF-7 cells): 28.17%
Apoptosis Late (MCF-7 cells): 17.98%
Necrosis (MCF-7 cells): 4.88%

IC50 (HER2 Kinase): 0.081 ± 0.006 µM
melting point: 208 to 210 °C
IC50 (EGFR Kinase): 0.026 ± 0.002 µM
IC50 (MCF-7 [1]): 5.64 ± 0.11 µM
SMILES: COc1ccc(C2=NN(C3=NC(=O)CS3)C(c3ccc(Cl)cc3)C2)cc1OC (centres unmarked) [Compound 6b, 2-(5-(4-Chlorophenyl)-3-(3,4-dimethoxyphenyl)-4,5-dihydro-1H-pyrazol-1-yl)thiazol-4(5H)-one]
IC50 (MCF-10A): 32.8 ± 1.27 µM

melting point: 294 to 296 °C
IC50 (MCF-7 [1]): 17.79 ± 0.14 µM
SMILES: COc1ccc(C2CC(c3ccc(OC)c(OC)c3)=NN2C2=NC(=O)C(=Cc3ccccc3)S2)cc1 (centres unmarked) [Compound 7a, 5-Benzylidene-2-(3-(3,4-dimethoxyphenyl)-5-(4-methoxyphenyl)-4,5-dihydro-1H-pyrazol-1-yl)thiazol-4(5H)-one]

melting point: 245 to 247 °C
IC50 (MCF-7 [1]): 20 ± 0.22 µM
SMILES: COc1ccc(C=C2SC(N3N=C(c4ccc(OC)c(OC)c4)CC3c3ccc(OC)cc3)=NC2=O)cc1 (centres unmarked) [Compound 7b, 2-(3-(3,4-Dimethoxyphenyl)-5-(4-methoxyphenyl)-4,5-dihydro-1H-pyrazol-1-yl)-5-(4-methoxybenzylidene)thiazol-4(5H)-one]

melting point: 283 to 285 °C
IC50 (MCF-7 [1]): 21.2 ± 0.24 µM
SMILES: COc1ccc(C2=NN(C3=NC(=O)C(=Cc4ccccc4)S3)C(c3ccc(Cl)cc3)C2)cc1OC (centres unmarked) [Compound 7c, 5-Benzylidene-2-(5-(4-chlorophenyl)-3-(3,4-dimethoxyphenyl)-4,5-dihydro-1H-pyrazol-1-yl)thiazol-4(5H)-one]

melting point: 250 to 252 °C
IC50 (MCF-7 [1]): 20.17 ± 0.19 µM
SMILES: COc1ccc(C=C2SC(N3N=C(c4ccc(OC)c(OC)c4)CC3c3ccc(Cl)cc3)=NC2=O)cc1 (centres unmarked) [Compound 7d, 2-(5-(4-Chlorophenyl)-3-(3,4-dimethoxyphenyl)-4,5-dihydro-1H-pyrazol-1-yl)-5-(4-methoxybenzylidene)thiazol-4(5H)-one]

melting point: > 300 °C
IC50 (MCF-7 [1]): 21.33 ± 0.21 µM
SMILES: COc1ccc(C2CC(c3ccc(OC)c(OC)c3)=NN2C2=NC(=O)C(=C3C(=O)Nc4ccccc43)S2)cc1 (centres unmarked) [Compound 8a, 2-(3-(3,4-Dimethoxyphenyl)-5-(4-methoxyphenyl)-4,5-dihydro-1H-pyrazol-1-yl)-5-(2-oxoindolin-3-ylidene)thiazol-4(5H)-one]

melting point: > 300 °C
IC50 (MCF-7 [1]): 19.5 ± 0.27 µM
SMILES: COc1ccc(C2=NN(C3=NC(=O)C(=C4C(=O)Nc5ccccc54)S3)C(c3ccc(Cl)cc3)C2)cc1OC (centres unmarked) [Compound 8b, 2-(5-(4-Chlorophenyl)-3-(3,4-dimethoxyphenyl)-4,5-dihydro-1H-pyrazol-1-yl)-5-(2-oxoindolin-3-ylidene)thiazol-4(5H)-one]

IC50 (HER2 Kinase): 0.022 ± 0.005 µM
IC50 (EGFR Kinase): 0.005 ± 0.002 µM
IC50 (MCF-7 [1]): 3.37 ± 0.13 µM
SMILES: COc1ccc(C2CC(c3ccc(OC)c(OC)c3)=NN2c2nc(-c3cc4ccccc4oc3=O)cs2)cc1 (centres unmarked) [Compound 10a, 3-(2-(3-(3,4-Dimethoxyphenyl)-5-(4-methoxyphenyl)-4,5-dihydro-1H-pyrazol-1-yl)thiazol-4-yl)-2H-chromen-2-one]
DNA Content %G0-G1 (MCF-7 [2]): 66.41%
DNA Content %G2/M (MCF-7 [2]): 4.04%
DNA Content %S (MCF-7 [2]): 29.55%
cell accumulation at S phase relative to control (MCF-7 [2]; MCF-7, compound at its IC50, control 26.33%): 1.12 folds
cell accumulation at G0-G1 relative to control (MCF-7 [2]; MCF-7, compound at its IC50, control 62.59%): 1.06 folds
IC50 (MCF-10A): ≥ 50 µM
Apoptosis Early (MCF-7 cells): 19.22%
Apoptosis Late (MCF-7 cells): 15.91%
Necrosis (MCF-7 cells): 7.53%

IC50 (HER2 Kinase): 0.065 ± 0.007 µM
melting point: 238 to 240 °C
IC50 (EGFR Kinase): 0.029 ± 0.004 µM
IC50 (MCF-7 [1]): 3.54 ± 0.07 µM
SMILES: COc1ccc(C2=NN(c3nc(-c4cc5ccccc5oc4=O)cs3)C(c3ccc(Cl)cc3)C2)cc1OC (centres unmarked) [Compound 10b, 3-(2-(5-(4-Chlorophenyl)-3-(3,4-dimethoxyphenyl)-4,5-dihydro-1H-pyrazol-1-yl)thiazol-4-yl)-2H-chromen-2-one]
IC50 (MCF-10A): 27.1 ± 1.98 µM

SMILES: Brc1ccc(C2=NN(c3nc(-c4ccc(Br)cc4)cs3)C(c3ccc4c(c3)OCO4)C2)cc1 (centres unmarked) [III]
IC50 (MCF-7 [3]): 0.09 µM
IC50 (HER2): 0.18 µM

SMILES: COc1ccc(C2CC(c3ccc(Cl)cc3Cl)=NN2c2nc(C)c(C(=O)Nc3ccccc3)s2)cc1OC (centres unmarked) [II]
IC50 (EGFR): 0.032 µM
IC50 (A549): 2.92 µM

SMILES: COc1ccc(C2CC(c3ccc(OC)c(OC)c3)=NN2c2nc(-c3ccccc3)cs2)cc1 (centres unmarked) [IV]
IC50 (EGFR): 0.009 µM
IC50 (MCF-7 [3]): 7.21 µM
IC50 (HER2): 0.013 µM

SMILES: Cc1ccc(C2=NN(c3nc(-c4ccc(Cl)cc4)cs3)C(c3ccc(F)cc3)C2)cc1C (centres unmarked) [I]
IC50 (EGFR): 0.06 µM
IC50 (MCF-7 [3]): 0.07 µM

IC50 (MCF-7 [1]): 5.88 ± 0.04 µM
SMILES: CS(=O)(=O)CCNCc1ccc(-c2ccc3ncnc(Nc4ccc(OCc5cccc(F)c5)c(Cl)c4)c3c2)o1 [Lapatinib, reference compound]
IC50 (MCF-10A): ≥ 50 µM

SMILES: Cc1ccc(C2=NN(C3=NC(=O)/C(=C/c4ccc(O)cc4)S3)C(c3ccc(F)cc3)C2)cc1 (centres unmarked) [VI]
IC50 (T-47D cell line): 1.15 µM
IC50 (EGFR): 0.083 µM

SMILES: COc1ccc2nc(Cl)c(C3CC(c4ccc(C)cc4)=NN3c3nc(-c4ccc(F)cc4)cs3)cc2c1 (centres unmarked) [V]
IC50 (EGFR): 0.031 µM
IC50 (MCF-7 [3]): 0.227 µM
